Measurements published in article PMC2532997, “Methoxylation enhances stilbene bioactivity in Caenorhabditis elegans” (BMC Pharmacology, 2008).

Assays:
[1] = test system: C. elegans fem-1(hc17) sterile adults; test: Adult survival assay of sterile fem-1(hc17) adults on compound-supplemented medium; type: in vivo, Caenorhabditis elegans
Method: For survival assays, young adult (day 0) animals were transferred onto fresh medium supplemented with the test compound at a range of concentrations. The compounds were tested at indicated concentrations in the growth medium (below). C. elegans nematodes are surrounded by a thick collagenous cuticle and are therefore relatively impermeable to environmental compounds. […] Survival was scored every 2–3 days as the ability to move in response to a gentle mechanical stimulus. During the first week of adulthood, C. elegans hermaphrodites are reproductively competent and normally produce 200–300 progeny. Since progeny production would complicate survival analysis, these experiments were performed using fem-1(hc17) animals that are sterile due to a spermatogenesis defect.
Resveratrol and picetannol were obtained from commercial sources (Sigma-Aldrich, Inc. and Calbiochem-Novobiochem Corp., respectively). The methoxylated stilbenes pinostilbene, desoxyrhapontigenin, 3-hydroxy-5,4'-dimethoxystilbene and pterostilbene (Figure 1) were synthesized by partial methylation of trans-resveratrol as previously reported. The methoxylated stilbenes were purified by preparative layer chromatography (Merck Silica gel 60 F254; EMD Chemicals Inc., Gibbstown, NJ) using the developing solvent chloroform:methanol (96:4) with 1% formic acid. […] These stilbenes were identified from their ^1H-NMR spectra (Bruker 400 MHz; Bruker, Billerica, MA). All stilbenes were dissolved in ethanol to 25 mg/mL before use. 5-Fluoro-deoxyuracil (Sigma Chemical Co.) was dissolved to 1 mg/mL in sterile water and stored frozen at -20°C until use. For treating C. elegans adults, each compound was added in a 200 μL volume to the top of a 1-day old bacterial lawn grown on NGM medium to final concentrations as indicated. Compounds were allowed 2 hours to diffuse through the agar medium before animals were added.
For survival analyses, synchronized populations of sterile fem-1(hc17) hermaphrodites were obtained by first transferring several fertile hermaphrodites to a fresh plate at 25°C and allowing them to lay eggs for several hours. The parent hermaphrodites were removed and embryos were allowed to develop into sterile adults at 25°C, which takes approximately 48 hours. On the first day of adulthood, referred to as day 0, sterile adults were transferred onto fresh media supplemented with stilbenes at indicated concentrations, and maintained at 25°C. Adult survival was scored every 2–3 days by the animal's ability to move in response to a gentle mechanical stimulus. Statistical analysis of survival was performed using the JMP software package.

[2] = test system: gld-1(q485) germline tumors; test: Germline tumor growth assay (DAPI-stained tumor area); type: in vivo, Caenorhabditis elegans; conditions: 100 μM dose, four days treatment
Method: To assess the effects of methoxylation on antitumor activity in vivo, tumor area was measured in gld-1(q485) adults treated for four days with either resveratrol trimethylether, desoxyrhapontigenin or pterostilbene, which are methoxylated and toxic to adults, or resveratrol, which is hydroxylated and nontoxic. As controls, germline tumor area was also measured in animals treated with carrier only (ethanol) or with 5-fluoro-2'-deoxyuradine (FUDR), a thymidylate synthetase inhibitor that blocks cell proliferation. […] After four days of treatment, animals were collected and germline tumors were visualized by DAPI staining to visualize germcell nuclei. Because the level of DAPI staining was not quantitative between animals, we DAPI signal intensity was not used as a measure of tumor size. Rather, tumor size was directly measured as the area of the DAPI-stained gonad.
Resveratrol and picetannol were obtained from commercial sources (Sigma-Aldrich, Inc. and Calbiochem-Novobiochem Corp., respectively). The methoxylated stilbenes pinostilbene, desoxyrhapontigenin, 3-hydroxy-5,4'-dimethoxystilbene and pterostilbene (Figure 1) were synthesized by partial methylation of trans-resveratrol as previously reported. The methoxylated stilbenes were purified by preparative layer chromatography (Merck Silica gel 60 F254; EMD Chemicals Inc., Gibbstown, NJ) using the developing solvent chloroform:methanol (96:4) with 1% formic acid. The Rf values for pterostilbene, 3-hydroxy-5,4'-dimethoxystilbene, pinostilbene and desoxyrhapontigenin are 0.61, 0.57, 0.28, and 0.20, respectively. These stilbenes were identified from their ^1H-NMR spectra (Bruker 400 MHz; Bruker, Billerica, MA). All stilbenes were dissolved in ethanol to 25 mg/mL before use. 5-Fluoro-deoxyuracil (Sigma Chemical Co.) was dissolved to 1 mg/mL in sterile water and stored frozen at -20°C until use. For treating C. elegans adults, each compound was added in a 200 μL volume to the top of a 1-day old bacterial lawn grown on NGM medium to final concentrations as indicated. Compounds were allowed 2 hours to diffuse through the agar medium before animals were added.
The gld-1(q485) mutation causes a defect in oocyte development that results in growth of germline tumors that fill the somatic gonad, eventually leading to the animal's death. To examine the effects of the stilbenes on gld-1(q485) germline tumors, day 0 adults were placed on stilbene-containing medium in the presence of OP50 bacteria as food source. After 4 days at 20°C, animals were fixed in methanol and germcell nuclei were visualized by staining with DAPI. Images were collected with the entire animal in view using the 4× objective on a Nikon E800 microscope equipped with a Hamamatsu Orca ER CCD camera using OpenLab imaging software. NIH Image J software was used to measure germline tumor growth in treated and untreated animals. Tumor area was measured by outlining the entire DAPI-stained tumor.

Compound: COc1ccc(/C=C/c2cc(OC)cc(OC)c2)cc1 [Resveratrol-trimethylether, resveratrol-trimethylether]
- Mean lifespan, Treated ([1]; Trial 1, 100 μM in medium, from day 0 of adulthood, 25°C, control 12.16 days): 9.7 days
- Relative survival ([1]; Trial 1, 100 μM, treated vs control mean lifespan): 80%
- Relative survival ([1]; Trial 4, 20 μM): 69%
- Mean lifespan, Treated ([1]; Trial 4, 20 μM, control 11.26 days): 7.72 days
- Relative survival ([1]; Trial 4, 40 μM): 69%
- Mean lifespan, Treated ([1]; Trial 4, 40 μM, control 11.26 days): 7.72 days
- Relative survival ([1]; Trial 4, 100 μM): 64%
- Mean lifespan, Treated ([1]; Trial 4, 100 μM, control 11.26 days): 7.18 days
- Relative survival ([1]; Trial 5, 5 μM): 102%
- Mean lifespan, Treated ([1]; Trial 5, 5 μM, control 18.49 days): 18.83 days
- Relative survival ([1]; Trial 5, 20 μM): 89%
- Mean lifespan, Treated ([1]; Trial 5, 20 μM, control 18.49 days): 16.41 days
- Relative survival ([1]; Trial 5, 100 μM): 82%
- Mean lifespan, Treated ([1]; Trial 5, 100 μM, control 18.49 days): 15.18 days
- Relative survival ([1]; Trial 6, 20 μM): 59%
- Mean lifespan, Treated ([1]; Trial 6, 20 μM, control 15.32 days): 9.02 days
- Relative survival ([1]; Trial 6, 40 μM): 52%
- Mean lifespan, Treated ([1]; Trial 6, 40 μM, control 15.32 days): 7.98 days
- Relative survival ([1]; Trial 6, 100 μM): 49%
- Mean lifespan, Treated ([1]; Trial 6, 100 μM, control 15.32 days): 7.54 days
- effect on tumor size (in words) [2]: consistent reductions in tumor size
